Target: T1, EGT (Autographa californica nuclear polyhedrosis virus, UniProt P18569)
T1 construct: extracellular medium from wt-AcMNPV infected cells containing significant egt activity; endogenous in cells; host or cells: Spodoptera frugiperda IPLB-SF-21 (SF) cells infected with wild-type AcMNPV; extracellular medium used unpurified; EGT made from the virus's own gene
Format: biochemical
Conditions: substrate 1 mM; extracellular medium from wt-AcMNPV infected cells; 0.05 μCi UDP-[U-14C]glucose
Procedure: Experiments are then performed to more thoroughly investigate the substrate specificity of EGT. In these experiments various substrates (1 mM) are incubated in the presence of extracellular medium from wt-AcMNPV infected cells containing significant egt activity. As controls to ensure that any conjugation observed is due to EGT, each substrate is also incubated with media from uninfected and vEGTZ-infected cells, which cannot produce EGT. 0.05 μCi UDP-[U-^14 C]glucose are added to each reaction. Any compounds which function as substrates for EGT will be conjugated with glucose; they can be detected because the glucose is radioactively labeled.
Substrates are incubated in the presence of medium derived from
appropriately infected cells and 0.05 μCi UDP[U-^14 C]glucose.
Amounts of glucose transferred are calculated after scintillation countin
of the appropriate regions of the chromatography plates.
The only substrates identified are ecdysone, 20-hydroxyecdysone and makisterone A, all of which are ecdysteriods. No conjugation is observed using medium from mock- or vEGTZ-infected cells, confirming that the activity observed is due to expression of egt.

T1 sequence (P18569 19-506): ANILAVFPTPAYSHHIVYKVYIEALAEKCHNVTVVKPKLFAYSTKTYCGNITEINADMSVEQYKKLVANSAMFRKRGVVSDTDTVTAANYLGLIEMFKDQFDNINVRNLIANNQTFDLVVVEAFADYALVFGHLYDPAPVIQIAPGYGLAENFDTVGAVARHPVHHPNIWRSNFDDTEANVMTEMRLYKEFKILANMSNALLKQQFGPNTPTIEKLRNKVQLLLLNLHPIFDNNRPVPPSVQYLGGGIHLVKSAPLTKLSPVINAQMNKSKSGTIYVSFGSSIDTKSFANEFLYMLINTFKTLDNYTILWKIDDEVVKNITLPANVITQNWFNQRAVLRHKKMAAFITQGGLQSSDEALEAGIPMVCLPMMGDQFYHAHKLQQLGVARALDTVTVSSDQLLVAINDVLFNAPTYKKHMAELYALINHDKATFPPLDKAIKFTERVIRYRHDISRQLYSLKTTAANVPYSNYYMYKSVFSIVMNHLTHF

SMILES | wild type (pmol Glucose transferred) [pmol]
C[C@H]([C@H](O)CCC(C)(C)O)[C@H]1CC[C@@]2(O)C3=CC(=O)[C@@H]4C[C@@H](O)[C@@H](O)C[C@]4(C)[C@H]3CC[C@]12C [Ecdysone] | 155.7
CC(C)(O)CCC(O)C(C)(O)C1CCC2(O)C3=CC(=O)C4CC(O)C(O)CC4(C)C3CCC12C (stereo not drawn) [20-Hydroxyecdysone] | 87.8
CC(CC(O)C(C)(O)C1CCC2(O)C3=CC(=O)C4CC(O)C(O)CC4(C)C3CCC12C)C(C)(C)O (stereo not drawn) [Makisterone A] | 89.6

From US5352451A, “Biological insect control agents and methods of use” (priority 1991, dated 1994)
